Here are results for two compounds from ChEMBL document CHEMBL4402560, “Sarco/Endoplasmic Reticulum Calcium ATPase Inhibitors: Beyond Anticancer Perspective” (J Med Chem, 2020).

For the experiment, the system named is Mycobacterium tuberculosis variant bovis. Kind of experiment: Antimycobacterial activity against Mycobacterium bovis. Format: functional, organism-based.

On to `C/C=C(/C)C(=O)O[C@@H]1C[C@H]2C(=C1C)[C@@H]1OC(=O)[C@@](C)(O)[C@@]1(O)[C@@H](OC(=O)CCCCn1cc([C@]3(O)CC[C@H]4[C@@H]5CCc6cc(OC)ccc6[C@H]5CC[C@@]43C)nn1)C[C@]2(C)OC(C)=O`, for which the IC50 (commonly the concentration that inhibits the measured activity by half) stood at 10.6 µM.

As for `C/C=C(\C)C(=O)O[C@@H]1C[C@H]2C(=C1C)[C@@H]1OC(=O)[C@@](C)(O)[C@@]1(O)[C@@H](OC(=O)[C@H](C)CC)C[C@@]2(C)OC(C)=O`, the concentration for half-maximal inhibition (IC50) is 27.3 µM.
